Measured values published in US10426842B2, “Targeted nanoparticle conjugate and method for co-delivery of siRNA and drug” (The Curators of the University of Missouri, priority 2015, dated 2019).

How the values were obtained:
[1] = tested on: NT5E (CD73) gene expression in H23 cells; test: Quantitative real-time RT-PCR of NT5E (CD73); format: cell-based, human; conditions: relative to untreated, 18sRNA reference
Method: (§1) The effect of the oncogene knockdown on gene expression of DUSP6 and NT5E genes were observed by quantitative real-time RT-PCR. Initially H23 cells (1×10^6 cells/well) were treated with 4 samples including untreated, GelNP-Ab, GelNP-Ab-siRNA and siRNA (transfection agent). RNA was extracted through standard RNA extraction protocol. cDNA was synthesized from RNA extracted from the treated cells. The quality and the concentration of the extracted RNA was determined using bioanalyzer. 18sRNA was used as an reference gene (housekeeping gene) for data normalization. Primers and probes for all genes were purchased from Integrated DNA Technologies (IDT). PCR was performed in a reaction volume of 20 μl containing 2 μl cDNA using the Gene Amp 7700 Sequence Detection System. The comparative Ct protocol was followed to determine the relative expression levels.

[2] = tested on: H23 human adenocarcinoma non-small cell lung cancer cells
Method: Considering downregulation of downstream-phosphorylated proteins, the cell viability of H23 cells (MTT assay) after knocking down the RAS pathway was then investigated.
(Thermo Scientific, USA). For determining in vitro cytotoxicity, the MTT assay was performed by incubating various samples including the nanoparticle of interest on H23 and A549 cells.
Each sample was analyzed in triplicate. After 24 hours of incubation, 10 μl of MTT solution (ATCC, USA) was added and the plate was incubated at 37° C. for 4 hours. Crystals formed were dissolved in 100 μl solubilizing buffer and the plates were kept at 25° C. for 2 hours. The intensity of the color developed after addition of the solubilizing buffer was measured using Biotek Cytation 3 spectrophotometer at 570 nm.
Viability of the cells transfected with various samples was then calculated by considering the untreated cells as 100% viable.

[3] = tested on: DUSP6 gene expression in H23 cells; test: Quantitative real-time RT-PCR of DUSP6; format: cell-based, human; conditions: relative to untreated, 18sRNA reference
Method: In this inquiry, quantitative real time PCR was performed to examine dual specificity phosphatase 6 (DUSP6) and CD73 gene expression levels.
as §1

[4] = tested on: SHP2, pSHP2 (Y542), pSHP2 (Y580) in KRAS mutated H23 cells; test: Western blot and densitometry for SHP2 and phospho-SHP2
Method: The Western blot analysis was performed as follows. Cells were seeded at a density of 1×10^6 cells/ml and incubated for overnight at 37° C. in 5% CO2 atmosphere. Nanoparticle and relevant control samples were incubated in serum free media for the period of 72 hrs. […] Whole-cell lysates were prepared using Triton X 100 lysis buffer with MS-SAFE protease and phosphatase cocktail inhibitor (Sigma-Aldrich) and the protein concentration was equalized by Bicinchoninic acid assay (Sigma-Aldrich).
Membranes were incubated with primary antibody overnight, were washed and incubated with secondary antibody. Primary antibodies used for western blotting are rabbit polyclonal anti-β-actin, rabbit monoclonal anti-AKT, rabbit monoclonal anti-phospho-AKT, rabbit polyclonal anti-MEK1/2, rabbit polyclonal anti-phospho-MEK1/2, rabbit monoclonal anti-EGFR, rabbit monoclonal anti-phospho-EGFR, rabbit monoclonal anti-SHP2, rabbit polyclonal anti-phospho-SHP2 (Tyr542), rabbit polyclonal anti-phospho-SHP2 (Tyr580), rabbit monoclonal anti-phospho-GAB1 (Tyr627), rabbit polyclonal anti-phospho-GAB1 (Tyr307), all from Cell Signaling and mouse monoclonal anti-KRAS from Santa Cruz Biotech. […] Protein expression levels were quantified by densitometry analysis.

**Q.** For “transfected siRNA: KRAS G12C siRNA (SEQ ID NO. 1 annealed with SEQ ID NO. 2) delivered with transfecting agent (sense GUUGGAGCUUGUGGCGUAGUUUU; antisense AACUACGCCACAAGCUCCAACUU; disulfide moiety, further chemistry not given here)”, which “CD73 (NT5E) RF value (real time qPCR)” value [1] is on record?
**A.** The value was 1.07.

**Q.** What about the “cytotoxicity / change in viability (in words)” value [2] of the same substance?
**A.** The value was “no toxicity”.

**Q.** What about the “cell survival post RAS oncogene knockdown” value ([2]; H23 cells, without gefitinib) of the same substance?
**A.** Its value is 100%.

**Q.** What about the “RF value of DUSP6 (real time qPCR)” value [3] of the same substance?
**A.** Its value is 0.1.

**Q.** And the “SHP2, pSHP2 (Y542) and pSHP2 (Y580) level” value ([4]; in the presence of gefitinib)?
**A.** Its value is “significant downregulation”.

**Q.** What about the “SHP2, pSHP2 (Y542) and pSHP2 (Y580) level” value ([4]; without gefitinib) of the same substance?
**A.** The value was “did not show any effect”.
